Data published in publication PMC5703966, “Systemic clearance and brain distribution of carbazole-based cyanine compounds as Alzheimer’s disease drug candidates” (Scientific Reports, 2017).
“And” between values parts separate entries of the source, which are not always exact repeats. Equal values may be shown once. Read-outs that look alike come from different tables or passages of the source.

Experiments:
[1] = system: mouse hepatocytes; assay: Hepatocyte stability; type: in vitro ADME; conditions: well-stirred model
[2] = Liver microsomes stability with NADPH; type: in vitro ADME; conditions: human
[3] = Blood cell partitioning (blood to plasma ratio); type: in vitro ADME; conditions: fresh whole blood, 37 °C
Experimental: The blood to plasma ratio was determined using the method shown in supplemental information (Supplemental Methods). […] The blood cell partitioning was calculated as follows. […] Plasma, liver microsomes and hepatocyte binding by RED device The stability of the compounds in plasma, liver microsomes and hepatocyte were studied to ensure the reliability of the binding data. Hepatocyte was deactivated by leaving them on a bench for 2 days and going through a freeze thaw cycle thereafter.

[4] = system: C57BL/6 mice; assay: Systemic clearance and pharmacokinetics after i.v. dose in C57BL/6 mice aging 2 months; type: in vivo, mouse
Experimental: (§1) Male C57BL/6 and Bile duct-cannulated (BDC) mice (2 months, weighting: 25–30 g) obtained from Charles River, Inc. (Raleigh, NC) were used to study systemic clearance mechanism, in line with in vitro commercial samples from adolescent animals. Mice were fasted overnight and throughout the duration of the study ([…]), whereas access to water was provided ad libitum. SLOH and SLM were administered i.v. in PBS containing 5% DMSO via the tail vein (n = 5) at different dosages in a dosing volume of 5 mL/kg. Serial blood samples were collected before dosing and at 0.083, 0.167, 0.25, 0.5, 1, 2, 4, 8, 12 and 24 hours after dosing. Urine samples (0–12 and 12–24 hours; pooled 0–24 hours) were also collected after i.v. administration (1 mg/kg). Bile samples were collected at intervals of 0–4, 4–8 and 8–24 hours (pooled 0–24 hours) after dosing (1 mg/kg) to BDC mice.
(§2) Parameters in animals were determined using non-compartmental analysis. […] Systemic Cl p was calculated as the i.v. dose divided by AUC0−∞ ^iv. The terminal rate constant (K el) was calculated by a linear regression of the log-linear concentration-time curve, and the terminal elimination t 1/2 was calculated as 0.693 divided by K el. Mean residence time from t = 0 to infinity (MRT 0−∞) was calculated as AUMC 0−∞ divided by AUC 0−∞. Apparent steady-state distribution volume (Vd ss) was determined as Cl p multiplied by MRT 0−∞. […] The Cl bile was derived as the amount of (in milligrams) of SLM or SLOH in the bile over the 24-hour interval postdose/AUC0-24h. The influx clearance into brain (K in) was calculated by using the amount of drug in the brain (homogenate) at time t (A, brain (t)) (corrected for the amount of drug remaining in the cerebral vasculature) divided by plasma exposure up to this time point (AUC, plasma (0 − t)). The C u,brain was calculated by A brain (homogenate, ng/g brain) divided by V u,brain (mL/g brain). The unbound ISF to plasma ratio (K puu,brain) was calculated by unbound AUC 0−t of ISF (ng/mL × min) divided by unbound AUC 0–t (ng/mL × min) of plasma.

[5] = as above; type: in vivo, mouse; conditions: male, iv; for clearance / AUC(0-inf) / half-life / MRT inf / Vd: C57BL/6, mouse, plasma; for clearance: read-out: Cl p (converted); for MRT inf: read-out: MRT 0-∞; for Vd: read-out: Vd ss
Experimental: as §1, §2

[6] = system: WT and 3 × Tg-AD mice; assay: Systemic clearance and brain distribution in WT and 3 × Tg-AD mice (8 months); type: in vivo, mouse; conditions: for K in: 1 mg/kg i.v.
Experimental: (§3) The transgenic (Tg) AD mice (B6; 129-Psen1 ^tm1Mpm Tg (APPSwe, tauP301L) 1Lfa/Mmjax) and the corresponding wild-type (WT) (B6129SF2/J) mice was obtained from the Jackson Laboratory (Bar Harbor, Maine, USA), and maintained by the Animal Facility of Faculty of Health Sciences in University of Macau. Either 27 WT or AD mice (8 months) were randomly separated into 9 groups with 3 mice at each time point. Blood and brain were collected at time points 0.083, 0.167, 0.25, 0.5, 1, 2, 4, 8 and 16 hours after i.v. dosing (1 mg/kg). Mice were euthanized by isoflurane followed by cervical dislocation. All the plasma, urine, bile and brain samples were stored at −70 °C for subsequent analysis. The analytical methods for systemic and brain PK parameters were shown in supplemental information (Supplemental Methods).
as §2

[7] = as above; type: in vivo, mouse; conditions: mouse; for Kp: brain interstitial fluid (unbound) versus plasma (unbound), read-out: K puu,brain; for clearance / Vd / half-life / MRT inf: plasma; for Vd: read-out: Vdss; for MRT inf: read-out: MRT 0−∞
Experimental: as §3, §2

[8] = B6129SF2/J (wild-type), iv, WT mice 8 months, 1 mg/kg i.v.
[9] = iv, AD mice 8 months, 1 mg/kg i.v.

SMILES: COCCOCCn1c2ccccc2c2cc(/C=C/c3cc[n+](CCO)c4ccccc34)ccc21 [SLOH, (E)-1-(2-hydroxyethyl)-4-(2-(9-(2-(2-metho-xyethoxy)-ethyl)-9H-carbazol-3-yl)vinyl) quinolin-1-ium chloride]
- Hepatocyte scaled Cl hep [1]: 9.67 ± 1.67 mL/min/kg
- CLint scaled at 1 μM ([2]; liver microsomes, pH 7.4, read-out: Microsomes Cl int,scaled): 82 ± 13 mL/min/kg
- Microsomes scaled Cl hep ([2]; well-stirred model): 2 ± 0.333 mL/min/kg
- Microsomes Cl u, int,app ([2]; Cl int,app / f u,mic): 1.00 ± 0.160^$ mL/min/mg
- microsomal CLint at 1 μM ([2]; liver microsomes, pH 7.4, NADPH, 1 μM, read-out: Microsomes Cl int,app): 70 ± 10 µL/min/mg
- blood plasma ratio at 1 h, 1 μM ([3]; human): ~0.76
- blood plasma ratio at 1 h, 1 μM ([3]; mouse): ~1.3
- Cl p ([4]; C57BL/6 mice 2 months, i.v. 1 mg/kg, 1 mg/kg): 0.610 ± 0.140 L/h per Kg
- Cl u, renal/GFR Ratio ([4]; GFR in mice 0.6 L/h per Kg): 0.260 ± 0.0400^$$
- dose dependence of kinetics ([4]; i.v. 0.2 mg/kg to 4 mg/kg in mice): linearity kinetics dependent on dose
- biliary clearance share of plasma clearance ([4]; mice): 34.0%
- remaining / hepatic clearance share of plasma clearance (Clhep/Clp) ([4]; mice): 64.0%
- renal clearance share of plasma clearance ([4]; mice): 1.10%
- Liver first pass elimination ([4]; mouse, in vivo): 16.0 % liver blood flow
- Cl u, renal ([4]; total Cl renal normalised with unbound free fraction in blood): 0.160 L/h per Kg and 0.160 ± 0.0300^$$ L/h per Kg
- clearance ([5]; 0.2 mg/kg, i.v. 0.2 mg/kg): 15.5 mL/min/kg
- clearance ([5]; 0.6 mg/kg, i.v. 0.6 mg/kg): 12.8 mL/min/kg
- clearance ([5]; 1 mg/kg, C57BL/6 mice 2 months, i.v. 1 mg/kg): ~10.2 mL/min/kg
- clearance ([5]; 2 mg/kg, i.v. 2.0 mg/kg): 10.7 mL/min/kg
- clearance ([5]; 4 mg/kg, i.v. 4.0 mg/kg): 11.8 mL/min/kg
- AUC(0-inf) ([5]; i.v. 0.2 mg/kg): 220 ± 61 ng·h/mL
- half-life ([5]; i.v. 0.2 mg/kg): 6.9 ± 3.7 h
- MRT inf ([5]; i.v. 0.2 mg/kg): 2.7 ± 1.5 h
- Vd ([5]; i.v. 0.2 mg/kg): 1 ± 0.33 L/kg
- AUC(0-inf) ([5]; i.v. 0.6 mg/kg): 860 ± 310 ng·h/mL
- half-life ([5]; i.v. 0.6 mg/kg): 5.5 ± 1.1 h
- MRT inf ([5]; i.v. 0.6 mg/kg): 2.3 ± 0.78 h
- Vd ([5]; i.v. 0.6 mg/kg): 1.2 ± 0.58 L/kg
- half-life ([5]; i.v. 1.0 mg/kg): 5.8 ± 0.16 h
- MRT inf ([5]; i.v. 1.0 mg/kg): 1.8 ± 0.1 h
- Vd ([5]; i.v. 1.0 mg/kg): 0.83 ± 0.43 L/kg
- half-life ([5]; i.v. 2.0 mg/kg): 4.6 ± 0.76 h
- MRT inf ([5]; i.v. 2.0 mg/kg): 1.8 ± 0.17 h
- Vd ([5]; i.v. 2.0 mg/kg): 1 ± 0.36 L/kg
- half-life ([5]; i.v. 4.0 mg/kg): 5.8 ± 1.7 h
- MRT inf ([5]; i.v. 4.0 mg/kg): 1.7 ± 0.08 h
- Vd ([5]; i.v. 4.0 mg/kg): 1 ± 0.35 L/kg
- CL renal ([5]; mouse, urine and plasma, C57BL/6 mice, i.v. 1 mg/kg, urine 0–24 h, read-out: Total Cl renal (converted)): 0.167 mL/min/kg
- K in ([6]; AD mice 8 months): 4.00 ± 0.500 μL/min per g brain
- K in ([6]; WT mice 8 months): 1.10 ± 0.100 μL/min per g brain
- K puu,brain in AD mice relative to WT mice ([6]; higher in AD mice): 8 fold
- Kp ([7]; 3×Tg-AD (B6;129-Psen1tm1Mpm Tg(APPSwe,tauP301L)1Lfa/Mmjax), iv, 1 mg/kg, AD mice 8 months, 1 mg/kg i.v.): 8.1
- clearance ([7]; 3×Tg-AD (B6;129-Psen1tm1Mpm Tg(APPSwe,tauP301L)1Lfa/Mmjax), iv, AD mice 8 months, 1 mg/kg i.v., read-out: Cl p (converted)): 10 mL/min/kg
- Vd ([7]; 3×Tg-AD (B6;129-Psen1tm1Mpm Tg(APPSwe,tauP301L)1Lfa/Mmjax), iv, AD mice 8 months, 1 mg/kg i.v.): 2.3 ± 0.71 L/kg
- clearance ([7]; B6129SF2/J (WT) and 3×Tg-AD, intravenous, 1 mg/kg, WT and AD mice (8 months), no significant difference, read-out: plasma clearance (converted)): ~10 mL/min/kg
- Kp ([7]; B6129SF2/J (wild-type), iv, 1 mg/kg, WT mice 8 months, 1 mg/kg i.v.): 0.98 ± 0.22
- half-life [7, 8]: 4.3 ± 1.1 h
- clearance ([7]; B6129SF2/J (wild-type), iv, WT mice 8 months, 1 mg/kg i.v., read-out: Cl p (converted)): 7.5 mL/min/kg
- MRT inf [7, 8]: 3 ± 1.2 h
- Vd [7, 8]: 2.1 ± 0.45 L/kg
- half-life [7, 9]: 4.8 ± 1.2 h
- MRT inf [7, 9]: 2.9 ± 0.38 h
